Results: patent publication US20210161997A1, “TREATING DISEASES VIA TARGETED MODULATION OF GENE SIGNALING NETWORKS” (Camp4 Therapeutics Corporation, priority 2018, published 2021)
Structures can show the parent of a compound that is named as a salt.

Each molecule was assayed on ANGPTL3 (assay: RNA-seq of ANGPTL3 expression in compound-treated primary human hepatocytes). Settings: additional compounds (Table 13), linear fold change.
Format: cell-based
Description: Human hepatocytes were obtained from two donors from Massachusetts General Hospital, namely MGH54 and MGH63, and one donor from Lonza, namely HUM4111B. Cryopreserved hepatocytes were cultured in plating media for 16 hours, transferred to maintenance media for 4 hours. Cultured on serum-free media for 2 hours, then a compound was added. The hepatocytes were maintained on the serum-free media for 16 hours prior to gene expression analysis. Primary human hepatocytes were stored in the vapor phase of a liquid nitrogen freezer (about −130° C.).
Human hepatocytes cultured as described above were plated in 24-well format, adding 375,000 cells per well in a volume of 500 ul plating medium. Four hours before treatment, cells were washed with PBS and the medium was changed to either: fresh maintenance medium (complete) or modified maintenance medium.
Compound stocks were prepared at 1000× final concentration and added in a 2-step dilution to the medium to reduce risk of a compound precipitating out of solution when added to the cells, and to ensure reasonable pipetting volumes. One at a time, each compound was first diluted 10-fold in warm (about 37° C.) modified maintenance medium (initial dilution=ID), mixed by vortexing, and the ID was diluted 100-fold into the cell culture (e.g. 5.1 ul into 1 well of a 24-well plate containing 0.5 mL medium). The plate was mixed by carefully swirling and after all wells were treated and returned to the incubator overnight. If desired, separate plates/wells were treated with vehicle-only controls and/or positive controls. If using multi-well plates, controls were included on each plate. After about 18 hours, cells were harvested for further analysis, e.g., ChIP-seq, RNA-seq, ATAC-seq, etc.
This protocol is a modified version of the following protocols: MagMAX mirVana Total RNA Isolation Kit User Guide (Applied Biosystems #MAN0011131 Rev B.0), NEBNext Poly(A) mRNA Magnetic Isolation Module (E7490), and NEBNext Ultra Directional RNA Library Prep Kit for Illumina (E7420) (New England Biosystems #E74901).
The MagMAX mirVana kit instructions (the section titled “Isolate RNA from cells” on pages 14-17) were used for isolation of total RNA from cells in culture. Two hundred μl of Lysis Binding Mix was used per well of the multiwell plate containing adherent cells (usually a 24-well plate).
For mRNA isolation and library prep, the NEBNext Poly(A) mRNA Magnetic Isolation Module and Directional Prep kit was used. RNA isolated from cells above was quantified, and prepared in […] of each sample in 50 μl of nuclease-free water. This protocol may be run in microfuge tubes or in a 96-well plate.
All pass filter reads from each sample were mapped against the human genome (assembly GRCh38/GCA_000001405.15 “no alt” analysis set merged with hs38d1/GCA_000786075.2) using two pass mapping via STAR version 2.5.3a (alignment parameters alignIntronMin=20; alignIntronMax=1000000; outFilterMismatchNmax=999; outFilterMismatchNoverLmax=0.05; outFilterType=BySJout; outFilterMultimapNmax=20; alignSJoverhangMin=8; alignSJDBoverhangMin=1; alignMatesGapMax=1000000) (Dobin et al., Bioinformatics (2012) 29(1):15-21). Genomic alignments were converted to transcriptome alignments based on reference transcript annotations from the Human GENCODE Gene Set release 24 (Harrow et al., Genome Res. (2012) 22(9): 1760-1774). Using unique and multimapped transcriptomic alignments, gene-level abundance estimates were computed using RSEM version 1.3.0 (Li and Dewey, BMC Bioinformatics (2011) 12:323) in a strand-aware manner, and including confidence interval sampling calculations, to arrive at posterior mean estimates (PME) of abundances (counts and normalized FPKM—fragments per kilobase of exon per million mapped fragments) from the underlying Bayesian model. Standard QC were applied (read integrity, mapping statistics, library complexity, fragment bias) to remove unsatisfactory samples.

Structure (SMILES) | ANGPTL3-LINEAR FOLD CHANGE
Cl.Clc1cccc(N2CCNCC2)c1 [1(3-Chlorophenyl)piperazine HCl] | 0.4414
CCN1CCN(Cc2ccc(-c3cc4c(N[C@H](C)c5ccccc5)ncnc4[nH]3)cc2)CC1 [AEE788 (NVP-AEE788)] | 0.1684
COc1cc(N2CCC(N3CCN(C)CC3)CC2)ccc1Nc1ncnc(Nc2ccccc2S(=O)(=O)C(C)C)n1 [ASP3026] | 0.3923
N#Cc1ccc2[nH]c(O)c(-c3ccc(CN4CCOCC4)cn3)c2c1 [AZD1080] | 0.2238
COc1cc(C)c(/C=C/C(C)=C/C=C/C(C)=C/C(=O)O)c(C)c1C [Acitretin] | 0.4763
Nc1ncn([C@@H]2O[C@H](CO)[C@@H](O)[C@H]2O)c(=O)n1 [Azacitidine] | 0.2316
CC[C@@H]1C(=O)N(C)c2cnc(Nc3ccc(C(=O)NC4CCN(C)CC4)cc3OC)nc2N1C1CCCC1 [BI 2536] | 0.2045
CC(C)NC(=O)C1CCC(n2c(NC(=O)c3ccc(F)cc3)nc3ccc(CN4CCC(C(C)(C)O)CC4)cc32)CC1 (stereo not drawn) [Belizatinib (TSR-011), Belizatinib] | 0.3121
COCCOCOc1cc2ccc(-c3ccc(C(=O)O)cc3)cc2cc1C12CC3CC(CC(C3)C1)C2 [CD 2665] | 0.395
NC(=O)N[C@@H](CCC(=O)O)C(=O)O [Carglumic Acid] | 0.1975
C[C@@H](NCCCc1cccc(C(F)(F)F)c1)c1cccc2ccccc12 [Cinacalcet HCl] | 0.3789
O=C(c1ccc(F)c(F)c1Nc1ccc(I)cc1F)N1CC(O)([C@@H]2CCCCN2)C1 [Cobimetinib (GDC-0973, RG7420), Cobimetinib] | 0.2333
CO[C@H]1C[C@@H]2CC[C@@H](C)[C@@](O)(O2)C(=O)C(=O)N2CCCC[C@H]2C(=O)O[C@H]([C@H](C)C[C@@H]2CC[C@@H](OCCO)[C@H](OC)C2)CC(=O)[C@H](C)/C=C(\C)[C@@H](O)[C@@H](OC)C(=O)[C@H](C)C[C@H](C)/C=C/C=C/C=C/1C [Everolimus (RAD001), Everolimus] | 0.483
Cc1cnc(Nc2ccc(OCCN3CCCC3)cc2)nc1Nc1cccc(S(=O)(=O)NC(C)(C)C)c1 [Fedratinib (SAR302503, TG101348), Fedratinib] | 0.1119
COCCCC/C(=N\OCCN)c1ccc(C(F)(F)F)cc1 [Fluvoxamine maleate] | 0.3231
COc1cc2c(Oc3ccc(NC(=O)C4(C(=O)Nc5ccc(F)cc5)CC4)cc3F)ccnc2cc1OCCCN1CCOCC1 [Foretinib (GSK1363089), Foretinib] | 0.3368
CCNC(=O)Nc1ccc(-c2nc3c(c(N4CCOC[C@@H]4C)n2)CCN(C2COC2)C3)cc1 [GDC-0349] | 0.4506
C[C@@H](Oc1cc(-n2cnc3ccc(CN4CCN(C)CC4)cc32)sc1C(N)=O)c1ccccc1C(F)(F)F [GSK461364] | 0.3078
CNc1nc(-c2ccc3c(N)n[nH]c3c2)cc(N2C[C@@H](C(=O)NC3CCCCC3)CC[C@H]2C)n1 [GSK2334470] | 0.4538
O=C(O)Cc1cccc(OCCCN(Cc2cccc(C(F)(F)F)c2Cl)CC(c2ccccc2)c2ccccc2)c1 [GW3965] | 2.071
c1ccc2c(CCNc3ccc(Nc4ccncc4)cc3)c[nH]c2c1 [JNJ-26854165 (Serdemetan), Serdemetan] | 0.1817
Cc1c(OCC(F)(F)F)ccnc1C[S+]([O-])c1nc2ccccc2[nH]1 (stereo not drawn) [Lansoprazole] | 0.4763
O=C1CCc2c(Oc3ccc4c(c3)[C@@H]3[C@H](O4)[C@H]3c3nc4ccc(C(F)(F)F)cc4[nH]3)ccnc2N1 [Lifirafenib (BGB-283), Lifirafenib] | 0.3585
O=C(O)c1ccc(Nc2ncc3c(n2)-c2ccc(Cl)cc2C(c2c(F)cccc2F)=NC3)cc1 [MLN8054] | 0.2755

Structure (SMILES) | ANGPTL3-LINEAR FOLD CHANGE
FC(F)(F)c1ccc(/C=C/c2nc(COc3ccc(CCCCn4ccnn4)cc3)co2)cc1 [Mubritinib (TAK 165), Mubritinib] | 0.3392
COc1cc(N)c(Cl)cc1C(=O)NC1CCNCC1OC (stereo not drawn) [NORCISAPRIDE HYDROCHLORIDE] | 0.3763
C=CC(=O)Nc1cccc(Oc2nc(Nc3ccc(N4CCN(C)CC4)cc3)nc3ccsc23)c1 [Olmutinib (HM61713, BI 1482694), Olmutinib] | 0.3057
CNC(=O)c1ccc(C)c(-n2c(C)cc(OCc3ccc(F)cc3F)c(Br)c2=O)c1 [PH-797804] | 0.2736
NCCC(O)(P(=O)(O)O)P(=O)(O)O [Pamidronate] | 0.1528
N=C(N)c1ccc(OCCCCCOc2ccc(C(=N)N)cc2)cc1 [Pentamidine isethionate] | 0.1321
CC(=O)c1ccc2c(c1)N(CCCN1CCC(CCO)CC1)c1ccccc1S2 [Piperacetazine] | 0.4033
[H]/N=C(\N/C(=N/[H])Nc1ccc(Cl)cc1)NC(C)C [Proguanil] | 0.3536
CCC[C@@H]1CC2=CC(=O)CC[C@]2(C)[C@H]2CC[C@@]3(C)[C@@H](CC[C@@]3(O)CCC(=O)[O-])[C@H]12.[K+] [RU 28318] | 0.4005
Cc1nc2n(c(=O)c1CCN1CCC(c3noc4cc(F)ccc34)CC1)CCCC2 [Risperidone] | 0.3231
C/C=C1\NC(=O)[C@H]2CSSCC/C=C/[C@H](CC(=O)N[C@H](C(C)C)C(=O)N2)OC(=O)[C@H](C(C)C)NC1=O [Romidepsin (FK228, Depsipeptide), Romidepsin] | 0.1349
C[C@@H]1CN(Cc2ccc(F)cc2)[C@@H](C)CN1C(=O)c1cc2c(C(=O)C(=O)N(C)C)cn(C)c2cc1Cl [SCIO-469] | 0.3711
Cc1cc(C)c(/C=C2\C(=O)Nc3ccccc32)[nH]1 [Semaxinib, Semaxanib] | 0.2449
CCC(C)(C)C(=O)O[C@H]1C[C@@H](C)C=C2C=C[C@H](C)[C@H](CC[C@@H]3C[C@@H](O)CC(=O)O3)[C@H]21 [Simvastatin] | 0.2588
Cc1c(C(=O)Nc2ccc(N3C[C@@H](C)O[C@@H](C)C3)nc2)cccc1-c1ccc(OC(F)(F)F)cc1 [Sonidegib (Erismodegib, NVP-LDE225), Sonidegib] | 0.4897
CC(C)(Sc1cc(C(C)(C)C)c(O)c(C(C)(C)C)c1)Sc1cc(C(C)(C)C)c(OC(=O)CCC(=O)O)c(C(C)(C)C)c1 [Succinobucol] | 0.3896
CC(C)(O)CC(=O)NCCn1ccc2ncnc(Nc3ccc(Oc4cccc(C(F)(F)F)c4)c(Cl)c3)c21 [TAK-285] | 0.3842
CCc1nc(-c2cccc(C)c2)c(-c2ccnc(NC(=O)c3ccccc3)c2)s1 [TAK-715] | 0.4538
CC/C(=C(\c1ccccc1)c1ccc(OCCN(C)C)cc1)c1ccccc1 [Tamoxifen] | 0.2606
NC(=O)c1ccc(N(C(N)=O)c2c(F)cccc2F)nc1-c1ccc(F)cc1F [VX-702] | 0.4353
O=C(CCCCCCC(=O)Nc1ccccc1)NO [Vorinostat (SAHA, MK0683), Vorinostat] | 0.3511
CCn1c(=O)c(-c2cc[nH]n2)cc2c(C)nc(N)nc21 [Voxtalisib (XL765, SAR245409), Voxtalisib] | 0.4175
COCCn1c2c([n+](Cc3cnccn3)c1C)C(=O)c1ccccc1C2=O [YM155 (Sepantronium Bromide), Sepantronium Bromide] | 0.3487
COc1cc(C(=O)NS(=O)(=O)c2ccccc2C)ccc1Cc1cn(C)c2ccc(NC(=O)OC3CCCC3)cc12 [Zafirlukast] | 0.4506
